Columns and labels:
[1] = Pharmacokinetic study on rat; format: in vivo, SD rats; conditions: for F: 5 mg/kg p.o vs 1 mg/kg i.v; for AUC(0-t) / Cmax / clearance / half-life: male, Sprague-Dawley (SD), plasma
Description: • SD rats: male, 180-250 g, purchased from Beijing Vital River Laboratory Animal Technology Co., Ltd. • Reagents: DMSO (dimethyl sulfoxide), PEG-400 (polyethylene glycol 400), physiological saline, heparin, acetonitrile, formic acid, and propranolol (internal standard), all of which are commercially available. • Instruments: Thermo Fisher Scientific LC-MS (U300 UPLC, TSQ QUANTUMN ULTRA triple quadrupole mass spectrometer).
A compound was weighed and dissolved in a DMSO-PEG-400-physiological saline (5:60:35, v/v/v) system. After the rats were administered with the compound intravenously or by gavage, 200 μL of venous blood samples were collected at 15 min, 30 min, 1 h, 2 h, 5 h, 7 h, and 24 h (for i.v. group an additional collection was performed at 5 min) in heparinized EP tubes respectively, which were centrifuged at 12,000 rpm for 2 min, and the plasma was frozen at −80° C. for further testing. A certain amount of the test substance was precisely weighed and dissolved in DMSO to obtain a stock solution with a concentration of 2 mg/mL. An appropriate amount of the stock solution of the compound was accurately pipetted and diluted with acetonitrile to prepare a standard series solution. 20 μL of each of the above standard series solution was accurately pipetted, added with 180 μL of blank plasma, and vortexed mixed to prepare plasma samples corresponding to plasma concentrations of 0.3, 1, 3, 10, 30, 100, 300, 1000, 3000 ng/mL. Two-sample analysis was performed for each concentration to establish a standard curve. 30 μL of plasma (for samples that are obtained at 5 min, 15 min, 30 min, and 1 h after intravenous administration, the plasma were diluted 10 times) was taken, added with 200 μL of a solution of internal standard propranolol in acetonitrile (50 ng/ml), and vortexed mixed. The mixture was then added with 100 μL of pure water, and vortexed and mixed again. It was centrifuged at 4000 rpm for 5 min, and the supernatant was collected for LC-MS analysis. LC-MS detection conditions were as follows. • Chromatographic column: Thermo Scientific HYPERSIL GOLD C-18 UPLC column, 100*2.1 mm, 1.7 μm. • Mobile phase: water (with 0.1% formic acid)-acetonitrile; gradient elution was performed according to the table below.
After blood drug concentrations was detected by LC-MS, WinNonlin 6.1 software was used to calculate pharmacokinetic parameters based on non-compartmental model.

human GLP-1 R = biological target: T1, human GLP-1 R (Homo sapiens, UniProt P43220); experiment: cAMP signal activation in human GLP1R cells (hGLP1R-U2OS, HTRF); format: cell-based
T1 construct: expressed in transfected cells
Method: A cell line stably expressing human GLP1 R (hGLP1R-U2OS) was used in this experiment. The cells were cultured in a growth medium (complete medium, DMEM+10% FBS+500 μg/mL G418 (Promega)) in an incubator at 37° C. and has 5% CO2 saturated humidity.
hGLP1R-U2OS was inoculated into 384-well plate with 1.0×10^4 cells/well (5 μL) (cell working solution: DMEM+0.1% BSA+1 mM IBMX (available from Bide Pharmatech Ltd.)), and was placed in an incubator at 37° C. and held for 30 min. The compounds to be tested were diluted stage-by-stage with Stimulation Buffer 1 (1×) in the kit, and the diluted compounds were added to the culture plate with 5 μL/well. They were incubated in an incubator at 37° C. for 30 min. Then, 5 μL/well of cAMP-d2 prepared with Lysis & Detection buffer and 5 μL/well of Anti CAMP-Cryptate working solution were added successively, and they were incubated at room temperature for 60 min before detection.
The ratio of signal emitted by donor to […] in each well was calculated as follows: HTRF rate=signal at 665 nm/signal at 620 nm×104, and then the HTRF rate was converted into a reaction rate (%). The concentration-response curve of each Example compound was created by a 4-parameter equation as Y=Bottom+(Top−Bottom)/(1+10^((Log IC50−X)*HillSlope)), and the half maximal (50%) effective concentration (EC50) was calculated.

[2] = biological target: T2, hERG potassium ion channel (Homo sapiens, UniProt Q12809); experiment: Effect on hERG potassium ion channel (CHO-hERG, manual patch clamp); format: cell-based
T2 construct: expressed in transfected cells
Method: A cell line CHO-hERG from ovary of Chinese hamster that stably expresses hERG potassium channel was used in this experiment. The cells were cultured in F12 complete medium containing 10% FBS, 1% antibiotics (G418), and 89 μg/mL hygromycin. The recovery medium was a F12 medium containing 10% FBS. Culture was performed at 37° C. and under 5% CO2.
The inhibitory activity of the compounds of the present invention in series gradient concentrations on the potassium channel in CHO-hERG was determined by manual patch clamp system.

T1 sequence (P43220 24-463): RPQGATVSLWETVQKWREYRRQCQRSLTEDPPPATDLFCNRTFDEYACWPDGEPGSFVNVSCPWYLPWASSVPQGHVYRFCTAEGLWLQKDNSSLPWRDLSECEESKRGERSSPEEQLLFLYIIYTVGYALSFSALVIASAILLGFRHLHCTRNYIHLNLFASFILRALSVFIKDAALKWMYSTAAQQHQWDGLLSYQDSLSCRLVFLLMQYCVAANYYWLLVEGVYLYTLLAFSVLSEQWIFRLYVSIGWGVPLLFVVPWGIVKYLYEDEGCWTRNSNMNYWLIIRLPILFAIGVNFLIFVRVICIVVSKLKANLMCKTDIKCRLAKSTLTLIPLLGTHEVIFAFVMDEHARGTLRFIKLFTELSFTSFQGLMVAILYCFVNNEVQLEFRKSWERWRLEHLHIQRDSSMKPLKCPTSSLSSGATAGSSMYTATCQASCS
T2 sequence (Q12809 whole entry): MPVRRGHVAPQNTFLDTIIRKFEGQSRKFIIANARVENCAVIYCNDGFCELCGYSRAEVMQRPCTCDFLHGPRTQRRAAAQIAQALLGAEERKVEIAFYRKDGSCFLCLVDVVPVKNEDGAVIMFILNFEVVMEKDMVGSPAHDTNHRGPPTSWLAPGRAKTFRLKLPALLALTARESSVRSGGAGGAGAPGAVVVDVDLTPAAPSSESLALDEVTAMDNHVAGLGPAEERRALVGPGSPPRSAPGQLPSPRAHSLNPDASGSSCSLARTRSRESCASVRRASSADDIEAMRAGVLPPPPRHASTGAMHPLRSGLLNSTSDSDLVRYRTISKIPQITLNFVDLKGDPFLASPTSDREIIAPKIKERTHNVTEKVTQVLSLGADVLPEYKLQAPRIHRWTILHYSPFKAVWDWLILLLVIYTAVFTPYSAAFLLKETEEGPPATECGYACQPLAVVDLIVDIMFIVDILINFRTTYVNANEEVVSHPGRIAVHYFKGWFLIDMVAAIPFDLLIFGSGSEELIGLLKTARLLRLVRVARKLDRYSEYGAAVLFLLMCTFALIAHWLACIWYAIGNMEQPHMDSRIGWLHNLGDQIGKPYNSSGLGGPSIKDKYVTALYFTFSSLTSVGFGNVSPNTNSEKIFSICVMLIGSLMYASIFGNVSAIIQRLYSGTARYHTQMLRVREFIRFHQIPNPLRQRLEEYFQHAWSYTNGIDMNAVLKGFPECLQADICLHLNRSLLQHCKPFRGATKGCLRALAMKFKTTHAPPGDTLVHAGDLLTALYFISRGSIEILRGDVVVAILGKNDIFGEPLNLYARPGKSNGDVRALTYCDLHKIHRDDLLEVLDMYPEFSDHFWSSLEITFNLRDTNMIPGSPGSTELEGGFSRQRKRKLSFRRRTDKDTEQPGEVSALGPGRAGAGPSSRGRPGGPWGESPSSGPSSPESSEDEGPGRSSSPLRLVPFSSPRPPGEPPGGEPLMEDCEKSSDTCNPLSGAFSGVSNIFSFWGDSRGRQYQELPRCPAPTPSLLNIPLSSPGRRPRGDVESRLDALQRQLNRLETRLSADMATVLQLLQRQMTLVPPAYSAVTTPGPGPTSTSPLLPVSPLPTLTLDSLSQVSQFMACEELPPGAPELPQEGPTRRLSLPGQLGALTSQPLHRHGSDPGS

SMILES	F [1] [%]	AUC(0-t) ([1]; iv, 1 mg/kg, i.v) [ng·h/mL]	Cmax ([1]; iv, 1 mg/kg, i.v) [ng/mL]	clearance ([1]; iv, 1 mg/kg, i.v) [mL/min/kg]	half-life ([1]; iv, 1 mg/kg, i.v) [h]	AUC(0-t) ([1]; po, 5 mg/kg, p.o) [ng·h/mL]	Cmax ([1]; po, 5 mg/kg, p.o) [ng/mL]	half-life ([1]; po, 5 mg/kg, p.o) [h]	EC50 (human GLP-1 R) [nM]	IC50 [2] [nM]
C[C@@H](c1nc2ccc(C(=O)O)nc2n1C[C@@H]1CCO1)N1CCN(c2cccc(OCc3ccc(C#N)cc3F)n2)CC1 [Example 51A, 2-((S)-1-(4-(6-((4-cyano-2-fluorobenzyl)oxy)pyridin-2-yl)piperazin-1-yl)ethyl)-3-(((S)-oxetan-2-yl)methyl)-3H-imidazo[4,5-b]pyridin-5-carboxylic acid]	34.3	613	1990	27.2	0.71	1050	323	1.06	2.28	–
C[C@@H](c1nc2ccc(C(=O)O)nc2n1C[C@@H]1CCO1)N1CCN(c2cccc(OCc3ccc(Cl)cc3F)n2)CC1 [Example 52A, 2-((S)-1-(4-(6-((4-chloro-2-fluorobenzyl)oxy)pyridin-2-yl)piperazin-1-yl)ethyl)-3-(((S)-oxetan-2-yl)methyl)-3H-imidazo[4,5-b]pyridin-5-carboxylic acid]	76.6	1130	2050	14.7	0.95	4330	1160	2.77	2	–
C[C@@H](c1nc2ccc(C(=O)O)cc2n1C[C@@H]1CCO1)N1CCC(c2cccc(OCc3ccc(Cl)cc3F)n2)CC1 [Example 1A, 2-((S)-1-(4-(6-((4-chloro-2-fluorobenzyl)oxy)pyridin-2-yl)piperidin-1-yl)ethyl)-1-(((S)-oxetan-2-yl)methyl)-1H-benzo[d]imidazol-6-carboxylic acid]	49.0	2430	2310	6.88	2.89	5950	747	3.4	1.71	–
C[C@@H](c1nc2ccc(C(=O)O)cc2n1C[C@@H]1CCO1)N1CCN(c2cccc(OCc3ccc(C#N)cc3F)n2)CC1 [Example 20A, 2-((S)-1-(4-(6-((4-cyano-2-fluorobenzyl)oxy)pyridin-2-yl)piperazin-1-yl)ethyl)-1-(((S)-oxetan-2-yl)methyl)-1H-benzo[d]imidazol-6-carboxylic acid]	46.4	539	1290	30.7	0.31	1250	348	1.17	4.66	> 30000
